# Patent US9012190B2, “Use of thiamine and nicotine adenine dinucleotide for butanol production” (Butamax Advanced Biofuels LLC, priority 2011, dated 2015)
# What was measured:
# [1] = test system: isobutanol producing NYLA84 strain; assay: Shake flask cultivations with nicotinic acid, vitamin solution or YEP (Example 8); format: cell-based, Saccharomyces cerevisiae
# Procedure: (§1) The aerobic shake flasks with air permeable lid were incubated at 30° C. and 260 rpm.
# [2] = test system: isobutanol producing NYLA 84 strain; assay: Aerobic shake flask range finding with nicotinic acid (Example 7); format: cell-based, Saccharomyces cerevisiae; settings: NA concentrations as low as 6 mg/L, all measurement points (2.00 h, 18.75 h, 24.5 h)
# Procedure: The strain used in this Example was the isobutanol producing NYLA 84 strain, described elsewhere herein. Vitamin stock solution contained biotin, 50 mg/L; Ca-panthotenate, 1 g/L; nicotinic acid, 1 g/L; myo-inositol, 25 g/l; thiamine.HCl, 1 g/L; pyridoxine hydrochloride, 1 g/L; p-aminobenzoic acid, 0.2 g/L; riboflavin, 0.2 g/L; and folic acid, 2 mg/L. One liter (1 L) of ergosterol and Tween 80 stock solution contains 10 g of ergosterol dissolved in 500 mL 100% ethanol solution and 500 mL Tween 80.
# Glucose and fermentation by-product analysis were determined by a Waters HPLC utilizing a Bio-Rad Aminex HPX-87H column with diode array (DA) operated at 210 nm and a refractive index (RI) detector at 50° C.
# Several seed cultures inoculated each with a 1 mL glycerol frozen stock vial were grown in 10 mL base medium for 24 h. At the start of the range finding experiment, seed cultures were pooled and 16 mL each of the pooled seed culture were distributed into 125 mL shake flasks, 2 mL of 1 M MES buffer added, and additionally 2 mL of (a) bidestilled water, (b-d) nicotinic acid (NA) stock solutions with 60 mg/L, 600 mg/L and 1000 mg/L of NA dissolved in bidestilled water, respectively, and (e) YE stock solution with 200 g/l YE. The aerobic shake flasks with air permeable lid were incubated at 30° C. and 260 rpm. Initial OD at λ=600 nm in the cultures was 0.764.
# [3] = test system: BP1063 isobutanol producing strain; settings: bioreactor; NA concentrations of as low as 5 mg/L; vs water control
# Procedure: One liter (1 L) of inoculum medium contained: 6.7 g, Yeast Nitrogen Base w/o amino acids (Difco 0919-15-3); 2.8 g, Yeast Synthetic Drop-out Medium Supplement Without histidine, leucine, tryptophan and uracil (Sigma Y2001); 20 mL of 1% (w/v) L-leucine; 4 mL of 1% (w/v) L-tryptophan; 1 mL of ergosterol and Tween 80 solution; 3 g of ethanol; 3 g of glucose. Preparation of ergosterol and Tween 80 solution: for 10 mL of the solution, 100 mg of ergosterol was dissolve in 5 mL 100% EtOH and 5 mL Tween 80. It was heated at 70° C. for 10 minutes.
# A 125 mL shake flask was inoculated directly from a frozen vial by pipetting the whole vial culture (approx. 1 ml) into 10 mL of the inoculum medium. The flask was incubated at 260 rpm and 30° C. The strain was grown overnight until OD about 1.0. At this point four 2 L baffled shake flasks with 90 mL of the inoculum medium were inoculated from the overnight culture. […]
# OD at λ=600 nm was determined in a HEλIOS a spectrophotometer (Thermo Electron Corporation, USA). […] Glucose and fermentation by-product analysis were determined by HPLC utilizing a Shodex® SH-1011 column with a Shodex® SH-G guard column (both available from Waters Corporation, Milford, Mass.), with diode array (DA) and refractive index (RI) detector. […]
# Isobutanol was measured in oleyl alcohol, culture broth, and off-gas samples by GC method, HPLC method, and mass-spectrometry, respectively.
# [4] = test system: isobutanol producing NYLA84 strain; assay: Shake flask cultivations with nicotinic acid, vitamin solution or YEP (Example 6); format: cell-based, Saccharomyces cerevisiae
# Procedure: as §1
# [5] = test system: isobutanol producing NYLA84 strain; assay: Shake flask fermentation with addition of thiamine or yeast extract (Example 1); format: cell-based, Saccharomyces cerevisiae
# Procedure: The medium contained the following ingredients per L of water: 6.7 g Yeast Nitrogen Base (YNB) w/o amino acids (Difco 0919-15-3); 2.8 g Yeast Synthetic Drop-out Medium Supplement Without histidine, leucine, tryptophan, and uracil (Sigma Y2001); 20 mL of 1% (w/v) L-leucine; 4 mL of 1% (w/v) L-tryptophan; 5 g ethanol; 3 g glucose; and 1.0 mL of the ergosterol and Tween 80. In order to obtain 10 mL ergosterol and Tween 80 solution, 100 mg of ergosterol were dissolved in 5 mL 100% EtOH and 5 mL Tween 80 and then heated until sterile and dissolved (10 min at 70° C.).
# In the shake flask experiments described, the following were added to 125 mL shake flasks: 16 mL of the culture broth; 2 mL of the 1 M MES buffer; and 2 mL of the addition (H2O, YE, TH). The following additions were prepared: yeast extract (YE, final concentration 10 g/L); thiamine (TH, final concentration 6, 60, and 100 mg/L).
# In order to provide the culture broth, seed cultures were started in 125 mL shake flasks with air permeable lids (10 mL medium inoculated with 1 mL inoculum from a frozen vial). […] The OD was measured at λ=600 nm (Spectrophotometer from Thermo Electron Corporation Heλios Alpha, USA). […] Ergosterol and Tween 80 was added to the medium to a final concentration of 1 mL/L. Seed (10 mL) was inoculated into 2 L shake flask with 135 mL of the medium. Separately, 2 mL of the H2O, YE, TH additions were added to new 125 ml shake flasks. Into the 2 L shake flask, 16 mL of 1 M MES buffer was added and 5.3 mL of 50% (w/w) glucose solution. Eighteen (18) mL of this culture broth was distributed into the 125 mL shake flasks with prepared additions. The aerobic shake flasks with air permeable lid were incubated at 30° C. and 260 rpm. The anaerobic shake flasks were treated in anaerobic hood and incubated at 30° C. and 260 rpm. The anaerobic shake flasks were sampled in the anaerobic hood.
# The effect of thiamine on isobutanol production was analyzed using shake flask fermentation. Shake flask fermentations were performed under both aerobic and anaerobic conditions in the presence of water (negative control), yeast extract (YE, positive control, final concentration 10 g/L), or thiamine (TH, final concentration 100 mg/L) with isobutanol producing NYLA84 strain. The final biomass (X), isobutanol concentrations, and specific isobutanol production rates (qP) were measured and are shown in FIG. 1.
# [6] = aerobic and anaerobic shake flasks, sampled after 6.3 and 20.8 h
# [7] = isobutanol, glucose consumption, biomass
# [8] = aerobic (25.8 h) and anaerobic (24.2 h) shake flasks
# [9] = aerobic shake flasks, thiamine 100 mg/L
smiles,measurement,setting,value
"O=C(O)c1cccnc1 [NA, nicotinic acid]",biomass formation compared to the negative control,[1]; [6],increased
same,consumption of glucose compared to the negative control,[1]; [6],increased
same,isobutanol production compared to the negative control,[1]; [6],increased
same,increase under anaerobic versus aerobic conditions,[1]; [7],significantly more pronounced under anaerobic than under aerobic conditions
same,biomass titers compared to control culture without NA,[2],significantly increased
same,isobutanol titers compared to control culture without NA,[2],significantly increased
same,final isobutanol titers in the aqueous phase,[3],improved
same,biomass formation compared to the negative control,[4]; [8],increased
same,consumption of glucose compared to the negative control,[4]; [8],increased
same,isobutanol production compared to the negative control,[4]; [8],increased
same,increase under anaerobic versus aerobic conditions,[4]; [7],significantly more pronounced under anaerobic than under aerobic conditions
Cc1ncc(C[n+]2csc(CCO)c2C)c(N)n1 [thiamine],initial qP compared with yeast extract,"[5]; aerobic flasks, thiamine 100 mg/L vs yeast extract 10 g/L",about the same as achieved with yeast extract
same,initial qP higher than the control,"[5]; aerobic flasks, thiamine 100 mg/L, vs water control",75%
same,initial qP (specific isobutanol production rate),"[5]; aerobic flasks, thiamine final concentration 100 mg/L, first 24 fermentation hours",0.14 g/g/h
same,accumulation of keto-isovaleric acid in control shake flasks compared to flasks with the addition,[5]; aerobic shake flasks,several times higher
same,isobutanol titers at the three concentrations,"[5]; aerobic shake flasks, final concentrations of 6, 60, and 100 mg/L thiamine",similar
same,final biomass concentration compared to the control,[5]; [9],higher
same,titers of isobutanol compared to the control,[5]; [9],higher
